Several values for one entry are separate records, joined by “and”; a condition that tells them apart may be missing. Equal values may be shown once. Inconclusive results and toxic doses are left out.

The subject of the assay is BDF1 mice, B16 melanoma ip, median survival T/C. The assay can be described thus: NCI In Vivo Anticancer Drug Screen. Data for tumor model B16 Melanoma (intraperitoneal) in B6D2F1 (BDF1) mice. As to conditions: endpoint: median survival time, higher = longer survival. The protocol:
The antitumor activity of compounds was measured in mice bearing transplantable tumors. Survival or tumor size were measured and the results are expressed as the measurement made in the treated group (T) divided by the measurement made in the vehicle treated control group (C). The tumor model used in this assay is B16 Melanoma (intraperitoneal) in B6D2F1 (BDF1) mice

Setting [1] is: dose: 6.25 mg/kg/injection, schedule: Q01DX009 (ip), vehicle: saline with Tween-80.
Where [2] appears, read: dose: 12.5 mg/kg/injection, schedule: Q01DX009 (ip), vehicle: saline with Tween-80.
Where [3] appears, read: dose: 100.0 mg/kg/injection, schedule: Q01DX009 (ip), vehicle: saline.
The mark [4] stands for this setting: dose: 25.0 mg/kg/injection, schedule: Q01DX009 (ip), vehicle: Klucel (hydroxypropylcellulose) (HPC).
Setting [5] is: dose: 100.0 mg/kg/injection, schedule: Q01DX009 (ip), vehicle: Klucel (hydroxypropylcellulose) (HPC).
The mark [6] stands for this setting: dose: 12.5 mg/kg/injection, schedule: Q01DX009 (ip), vehicle: Klucel (hydroxypropylcellulose) (HPC).
[7] abbreviates: dose: 50.0 mg/kg/injection, schedule: Q01DX009 (ip), vehicle: Klucel (hydroxypropylcellulose) (HPC).
The mark [8] stands for this setting: dose: 200.0 mg/kg/injection, schedule: Q01DX009 (ip), vehicle: Klucel (hydroxypropylcellulose) (HPC).
Where [9] appears, read: dose: 400.0 mg/kg/injection, schedule: Q01DX009 (ip), vehicle: Klucel (hydroxypropylcellulose) (HPC).
Where [10] appears, read: dose: 25.0 mg/kg/injection, schedule: Q01DX009 (ip), vehicle: saline with Tween-80.
The mark [11] stands for this setting: dose: 100.0 mg/kg/injection, schedule: Q01DX009 (ip), vehicle: saline with Tween-80.
Setting [12] is: dose: 6.25 mg/kg/injection, schedule: Q01DX009 (ip), vehicle: saline.
Setting [13] is: dose: 12.5 mg/kg/injection, schedule: Q01DX009 (ip), vehicle: saline.
Where [14] appears, read: dose: 25.0 mg/kg/injection, schedule: Q01DX009 (ip), vehicle: saline.

Regarding `N#C[CH2][Sn]([I])([c]1ccccc1)[c]1ccccc1`, the T/C was 93 % of control (dose: 3.12 mg/kg/injection, schedule: Q01DX009 (ip), vehicle: saline with Tween-80); 87 % of control under setting [1]; 86 % of control under setting [2].
Take `SCc1ccccn1`: the T/C under setting [3] was 112 % of control; the T/C (dose: 200.0 mg/kg/injection, schedule: Q01DX009 (ip), vehicle: saline) is 115 % of control; the T/C (dose: 400.0 mg/kg/injection, schedule: Q01DX009 (ip), vehicle: saline) was 105 % of control.
Turning to `COc1cc2ccc(CCNCc3ccccc3)cc2cc1OC`, the T/C (dose: 50.0 mg/kg/injection, schedule: Q04DX003 (ip), vehicle: saline) was 92 % of control and the T/C (dose: 100.0 mg/kg/injection, schedule: Q04DX003 (ip), vehicle: saline) is 94 % of control.
Regarding `COc1c(C(C)(C)C)cc([N+](=O)[O-])c(C)c1[N+](=O)[O-]`, the T/C reads like this: (dose: 100.0 mg/kg/injection, schedule: Q04DX003 (ip), vehicle: Klucel (hydroxypropylcellulose) (HPC)) 100 % of control; (dose: 200.0 mg/kg/injection, schedule: Q04DX003 (ip), vehicle: Klucel (hydroxypropylcellulose) (HPC)) 96 % of control; (dose: 400.0 mg/kg/injection, schedule: Q04DX003 (ip), vehicle: Klucel (hydroxypropylcellulose) (HPC)) 87 % of control.
For `NNC(=S)N/N=C/c1ccc([N+](=O)[O-])s1`, the T/C by setting is: under setting [4], 88 % of control; under setting [5], 89 % of control.
Take `COc1cc2c(cc1Oc1c(Oc3c(O)c(OC)cc4c3C(CC(C)C)N(C)CC4)c(OC)cc3c1C(CC(C)C)N(C)CC3)C(CC(C)C)N(C)CC2` (stereo not drawn): the T/C under setting [6] is 100 % of control, the T/C under setting [4] was 96 % of control and the T/C under setting [7] was 110 % of control.
Take `O=C(Nc1cc(C(F)(F)F)ccc1Cl)c1ccc(Cl)cc1`: the T/C by setting is: under setting [5], 104 % of control; under setting [8], 100 % of control; under setting [9], 103 % of control.
As to `O=C(c1cccc(C(=O)n2c3c(c4ccccc42)CCCC3)c1)n1c2c(c3ccccc31)CCCC2`, the T/C is, setting by setting: under setting [1], 94 % of control; under setting [2], 102 % of control; under setting [10], 100 % of control.
`O=NN(CCF)C(=O)NC1CCCCC1`: the T/C reads like this: (dose: 7.5 mg/kg/injection, schedule: Q01DX001 (ip), vehicle: saline + alcohol) 115 % of control; (dose: 15.0 mg/kg/injection, schedule: Q01DX001 (ip), vehicle: saline + alcohol) 106 % of control; (dose: 30.0 mg/kg/injection, schedule: Q01DX001 (ip), vehicle: saline + alcohol) 119 % of control; (dose: 60.0 mg/kg/injection, schedule: Q01DX001 (ip), vehicle: saline + alcohol) 171 % of control; (dose: 120.0 mg/kg/injection, schedule: Q01DX001 (ip), vehicle: saline + alcohol) 166 % of control.
With `O=C(O)C(O)C(=O)O.[NH-]C1CCCCC1[NH-].[Pt+2]`, the T/C was 161 % of control (dose: 20.0 mg/kg/injection, schedule: Q01DX009 (ip), vehicle: other) and 150 % of control (dose: 40.0 mg/kg/injection, schedule: Q01DX009 (ip), vehicle: other).
As to `CN(C)N=Nc1ccnc2c(I)cccc12`, the T/C (dose: 25.2 mg/kg/injection, schedule: Q01DX008 (ip), vehicle: DMSO) is 92 % of control; the T/C (dose: 42.0 mg/kg/injection, schedule: Q01DX008 (ip), vehicle: DMSO) is 97 % of control; the T/C (dose: 70.0 mg/kg/injection, schedule: Q01DX008 (ip), vehicle: DMSO) is 99 % of control; the T/C (dose: 116.7 mg/kg/injection, schedule: Q01DX008 (ip), vehicle: DMSO) was 92 % of control.
Turning to `C=C/C(C)=C/[C@H](C)C(=O)C[C@H](O)CC1CC(=O)NC(=O)C1`, the T/C by setting is: under setting [1], 121 % of control; under setting [2], 109 % of control; under setting [10], 121 % of control; under setting [11], 121 % of control.
In the case of `CC(C(=O)O)C(=O)O.[NH2-].[NH2-].[Pt+2]`, the T/C was 102 % of control (dose: 0.78 mg/kg/injection, schedule: Q01DX009 (ip), vehicle: Klucel (hydroxypropylcellulose) (HPC)); 109 % of control (dose: 1.56 mg/kg/injection, schedule: Q01DX009 (ip), vehicle: Klucel (hydroxypropylcellulose) (HPC)); 120 % of control (dose: 3.12 mg/kg/injection, schedule: Q01DX009 (ip), vehicle: Klucel (hydroxypropylcellulose) (HPC)); 156 % of control (dose: 6.25 mg/kg/injection, schedule: Q01DX009 (ip), vehicle: Klucel (hydroxypropylcellulose) (HPC)); 124 % of control under setting [12]; 175 % of control under setting [6]. Also, the T/C is, setting by setting: under setting [13], 160 % of control; under setting [4], 216 % of control; under setting [14], 175 % of control; (dose: 50.0 mg/kg/injection, schedule: Q01DX009 (ip), vehicle: saline) 209 % of control; under setting [3], 202 % of control.
On to `O=C(Nc1ccc(NC2=NCCN2)cc1)c1cccc(C(=O)Nc2ccc(NC3=NCCN3)cc2)c1`, for which the T/C is 105 % of control (dose: 7.5 mg/kg/injection, schedule: Q01DX009 (ip), vehicle: saline with Tween-80); 100 % of control (dose: 7.5 mg/kg/injection, schedule: Q04DX003 (ip), vehicle: saline with Tween-80); 92 % of control (dose: 15.0 mg/kg/injection, schedule: Q01DX009 (ip), vehicle: saline with Tween-80); 88 % of control (dose: 15.0 mg/kg/injection, schedule: Q04DX003 (ip), vehicle: saline with Tween-80); 100 % of control (dose: 30.0 mg/kg/injection, schedule: Q04DX003 (ip), vehicle: saline with Tween-80).
With `O=C(c1ccccc1Cl)N(Cc1ccccc1)c1ccccc1`, the T/C runs as follows: under setting [4], 93 % of control; under setting [7], 93 % of control; under setting [5], 90 % of control and 100 % of control.
In the case of `CCOC(=O)C(=CNc1cccc(N)n1)C(=O)OCC`, the T/C runs as follows: under setting [5], 107 % of control; under setting [8], 111 % of control; under setting [9], 94 % of control.
The like results for `COc1cc(NS(=O)(=O)c2ccc(C(C)=O)cc2)nc(OC)n1` were, in that order, 100 % of control, 100 % of control and 93 % of control.
As to `C(/C=C/C=C/N1CCCCC1)=[N+]1CCCCC1`, the T/C runs as follows: (dose: 0.13 mg/kg/injection, schedule: Q01DX009 (ip), vehicle: saline) 96 % of control; (dose: 0.25 mg/kg/injection, schedule: Q01DX009 (ip), vehicle: saline) 107 % of control; (dose: 0.5 mg/kg/injection, schedule: Q01DX009 (ip), vehicle: saline) 101 % of control; (dose: 1.0 mg/kg/injection, schedule: Q01DX009 (ip), vehicle: saline) 105 % of control.
In the case of `CCCCCCCCC(O)CCCC` (stereo not drawn), the T/C runs as follows: under setting [5], 103 % of control; under setting [8], 95 % of control; under setting [9], 103 % of control.
For `COc1c2ccoc2c(OCC=C(C)C)c2oc(=O)ccc12`, the T/C is 94 % of control (dose: 100.0 mg/kg/injection, schedule: Q04DX003 (ip), vehicle: saline with Tween-80); 105 % of control (dose: 200.0 mg/kg/injection, schedule: Q04DX003 (ip), vehicle: saline with Tween-80); 97 % of control (dose: 400.0 mg/kg/injection, schedule: Q04DX003 (ip), vehicle: saline with Tween-80).
Regarding `O=[N+]([O-])c1ccc(N=Nc2c(Cl)cc(O)cc2Cl)cc1`, the T/C is 101 % of control under setting [10]; 90 % of control (dose: 50.0 mg/kg/injection, schedule: Q01DX009 (ip), vehicle: saline with Tween-80); 88 % of control under setting [11]; 90 % of control (dose: 200.0 mg/kg/injection, schedule: Q01DX009 (ip), vehicle: saline with Tween-80).
In the case of `C=C(C)[C@@H]1CC[C@]2(CO)CC[C@]3(C)[C@H](CC[C@@H]4[C@@]5(C)CC[C@H](O)C(C)(C)[C@@H]5CC[C@]43C)[C@@H]12`, the T/C under setting [5] was 99 % of control, the T/C under setting [8] is 97 % of control and the T/C under setting [9] was 95 % of control.
For the molecule `C1CNC2NCCNC2N1` (stereo not drawn), the T/C is 114 % of control under setting [12], 120 % of control under setting [13], 105 % of control under setting [14] and 109 % of control under setting [3].

(Values after PubChem BioAssay AID192 (DTP/NCI, 2004).)
